Test results as given in the kinase profiling compilation of Christmann-Franck et al. (2016).

What was measured:
Test in all cases: radiometric filter-binding kinase assay
DYRK2 (human) = DYRK2 (human) (UniProt Q92630)
ERBB4 (human) = ERBB4 (human) (UniProt Q15303)
RPS6KA1 KD1 KD2 (human) = RPS6KA1 KD1 KD2 (human) (UniProt Q15418)
PRKAA1 or PRKAA2 (rat) = conditions: accession and sequence are those of the human protein
MAPK8 (human) = MAPK8 (human) (UniProt P45983)
EPHB2 (human) = EPHB2 (human) (UniProt P29323)
[1] = system: AKT1 (human), P31749 [S473D]
CHEK2 (human) = CHEK2 (human) (UniProt O96017)
PRKCA (human) = PRKCA (human) (UniProt P17252)
PLK1 (human) = PLK1 (human) (UniProt P53350)
MAPK13 (human) = MAPK13 (human) (UniProt O15264)
AURKA (human) = AURKA (human) (UniProt O14965)
SYK (human) = SYK (human) (UniProt P43405)
CaMK1 (human) = CaMK1 (human) (UniProt Q14012)
MAPK10 (human) = MAPK10 (human) (UniProt P53779)
MAPK3 (human) = MAPK3 (human) (UniProt P27361)
MAPK1 (human) = MAPK1 (human) (UniProt P28482)
MAPKAPK3 (human) = MAPKAPK3 (human) (UniProt Q16644)
PAK4 (human) = PAK4 (human) (UniProt O96013)
DYRK1A (human) = DYRK1A (human) (UniProt Q13627)
PRKACA (human) = PRKACA (human) (UniProt P17612)
EPHB3 (human) = EPHB3 (human) (UniProt P54753)
IKBKE (human) = IKBKE (human) (UniProt Q14164)
MAPK12 (human) = MAPK12 (human) (UniProt P53778)
HIPK2 (human) = HIPK2 (human) (UniProt Q9H2X6)
MKNK1 (human) = MKNK1 (human) (UniProt Q9BUB5)
MST4 (human) = MST4 (human) (UniProt Q9P289)
BRSK2 (human) = BRSK2 (human) (UniProt Q8IWQ3)
NUAK1 (human) = NUAK1 (human) (UniProt O60285)
MARK2 (human) = MARK2 (human) (UniProt Q7KZI7)
PAK7 (human) = PAK7 (human) (UniProt Q9P286)
[2] = system: SGK1 (human), O00141 [S422D]
MAP3K11 (human) = MAP3K11 (human) (UniProt Q16584)
MAP2K6 (human) = MAP2K6 (human) (UniProt P52564)
NEK2 (human) = NEK2 (human) (UniProt P51955)

DYRK2 (human), sequence (Q92630 whole entry, looked up): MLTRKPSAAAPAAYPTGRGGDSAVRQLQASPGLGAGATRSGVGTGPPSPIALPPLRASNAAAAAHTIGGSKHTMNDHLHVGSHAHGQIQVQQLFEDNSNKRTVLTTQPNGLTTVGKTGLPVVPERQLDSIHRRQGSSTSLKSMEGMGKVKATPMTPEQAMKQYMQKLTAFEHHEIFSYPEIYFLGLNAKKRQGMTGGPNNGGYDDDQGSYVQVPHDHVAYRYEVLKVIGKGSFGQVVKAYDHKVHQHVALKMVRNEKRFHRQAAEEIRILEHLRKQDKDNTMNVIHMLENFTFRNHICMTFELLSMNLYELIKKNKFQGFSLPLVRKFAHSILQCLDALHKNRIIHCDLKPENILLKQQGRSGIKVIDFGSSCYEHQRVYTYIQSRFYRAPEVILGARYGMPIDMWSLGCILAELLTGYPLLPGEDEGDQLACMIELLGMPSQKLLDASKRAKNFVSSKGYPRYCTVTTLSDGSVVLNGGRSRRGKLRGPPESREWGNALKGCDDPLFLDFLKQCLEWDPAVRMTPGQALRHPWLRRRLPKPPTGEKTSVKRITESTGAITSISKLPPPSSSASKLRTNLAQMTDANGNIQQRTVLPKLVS
BRSK2 (human), sequence (Q8IWQ3 whole entry, looked up): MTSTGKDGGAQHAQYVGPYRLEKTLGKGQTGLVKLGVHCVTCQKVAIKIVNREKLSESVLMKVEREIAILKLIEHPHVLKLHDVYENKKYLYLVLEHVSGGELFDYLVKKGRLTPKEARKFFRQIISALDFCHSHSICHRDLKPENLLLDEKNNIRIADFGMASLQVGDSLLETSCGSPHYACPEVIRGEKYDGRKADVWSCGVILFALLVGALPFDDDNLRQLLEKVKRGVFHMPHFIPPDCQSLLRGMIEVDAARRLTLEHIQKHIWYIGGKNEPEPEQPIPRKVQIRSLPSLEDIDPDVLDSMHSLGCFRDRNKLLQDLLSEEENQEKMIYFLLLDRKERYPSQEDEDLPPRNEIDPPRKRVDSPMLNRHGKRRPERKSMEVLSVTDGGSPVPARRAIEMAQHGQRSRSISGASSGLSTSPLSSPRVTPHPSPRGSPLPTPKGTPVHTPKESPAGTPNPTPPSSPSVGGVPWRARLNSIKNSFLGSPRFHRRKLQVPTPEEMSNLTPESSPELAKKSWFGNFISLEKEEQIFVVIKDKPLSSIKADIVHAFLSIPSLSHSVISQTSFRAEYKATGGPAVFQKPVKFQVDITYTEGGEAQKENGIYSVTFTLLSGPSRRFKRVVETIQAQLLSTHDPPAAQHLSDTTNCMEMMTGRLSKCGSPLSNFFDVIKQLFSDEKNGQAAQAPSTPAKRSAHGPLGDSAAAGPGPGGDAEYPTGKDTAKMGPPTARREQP
MST4 (human), sequence (Q9P289 whole entry, looked up): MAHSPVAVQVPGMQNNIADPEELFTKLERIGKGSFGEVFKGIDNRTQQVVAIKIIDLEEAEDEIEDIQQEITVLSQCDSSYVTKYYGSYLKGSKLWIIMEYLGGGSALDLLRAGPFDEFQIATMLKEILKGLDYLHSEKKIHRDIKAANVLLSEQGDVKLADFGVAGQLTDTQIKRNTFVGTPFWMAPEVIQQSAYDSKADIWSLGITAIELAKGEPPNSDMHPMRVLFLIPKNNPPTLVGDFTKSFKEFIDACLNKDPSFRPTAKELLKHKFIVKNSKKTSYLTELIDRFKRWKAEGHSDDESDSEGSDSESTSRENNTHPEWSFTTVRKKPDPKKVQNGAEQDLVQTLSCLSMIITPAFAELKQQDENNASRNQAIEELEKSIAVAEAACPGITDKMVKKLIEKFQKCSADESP
MAPK1 (human), sequence (P28482 whole entry, looked up): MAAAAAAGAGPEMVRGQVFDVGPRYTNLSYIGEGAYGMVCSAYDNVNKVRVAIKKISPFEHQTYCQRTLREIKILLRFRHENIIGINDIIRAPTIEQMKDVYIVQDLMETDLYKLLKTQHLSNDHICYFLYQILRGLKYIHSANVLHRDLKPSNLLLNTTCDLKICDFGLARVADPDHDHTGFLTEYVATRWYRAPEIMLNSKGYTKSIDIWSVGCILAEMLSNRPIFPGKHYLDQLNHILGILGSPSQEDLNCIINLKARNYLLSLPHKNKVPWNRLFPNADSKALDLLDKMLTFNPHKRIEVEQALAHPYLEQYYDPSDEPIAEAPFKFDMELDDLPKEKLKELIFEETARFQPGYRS
HIPK2 (human), sequence (Q9H2X6 whole entry, looked up): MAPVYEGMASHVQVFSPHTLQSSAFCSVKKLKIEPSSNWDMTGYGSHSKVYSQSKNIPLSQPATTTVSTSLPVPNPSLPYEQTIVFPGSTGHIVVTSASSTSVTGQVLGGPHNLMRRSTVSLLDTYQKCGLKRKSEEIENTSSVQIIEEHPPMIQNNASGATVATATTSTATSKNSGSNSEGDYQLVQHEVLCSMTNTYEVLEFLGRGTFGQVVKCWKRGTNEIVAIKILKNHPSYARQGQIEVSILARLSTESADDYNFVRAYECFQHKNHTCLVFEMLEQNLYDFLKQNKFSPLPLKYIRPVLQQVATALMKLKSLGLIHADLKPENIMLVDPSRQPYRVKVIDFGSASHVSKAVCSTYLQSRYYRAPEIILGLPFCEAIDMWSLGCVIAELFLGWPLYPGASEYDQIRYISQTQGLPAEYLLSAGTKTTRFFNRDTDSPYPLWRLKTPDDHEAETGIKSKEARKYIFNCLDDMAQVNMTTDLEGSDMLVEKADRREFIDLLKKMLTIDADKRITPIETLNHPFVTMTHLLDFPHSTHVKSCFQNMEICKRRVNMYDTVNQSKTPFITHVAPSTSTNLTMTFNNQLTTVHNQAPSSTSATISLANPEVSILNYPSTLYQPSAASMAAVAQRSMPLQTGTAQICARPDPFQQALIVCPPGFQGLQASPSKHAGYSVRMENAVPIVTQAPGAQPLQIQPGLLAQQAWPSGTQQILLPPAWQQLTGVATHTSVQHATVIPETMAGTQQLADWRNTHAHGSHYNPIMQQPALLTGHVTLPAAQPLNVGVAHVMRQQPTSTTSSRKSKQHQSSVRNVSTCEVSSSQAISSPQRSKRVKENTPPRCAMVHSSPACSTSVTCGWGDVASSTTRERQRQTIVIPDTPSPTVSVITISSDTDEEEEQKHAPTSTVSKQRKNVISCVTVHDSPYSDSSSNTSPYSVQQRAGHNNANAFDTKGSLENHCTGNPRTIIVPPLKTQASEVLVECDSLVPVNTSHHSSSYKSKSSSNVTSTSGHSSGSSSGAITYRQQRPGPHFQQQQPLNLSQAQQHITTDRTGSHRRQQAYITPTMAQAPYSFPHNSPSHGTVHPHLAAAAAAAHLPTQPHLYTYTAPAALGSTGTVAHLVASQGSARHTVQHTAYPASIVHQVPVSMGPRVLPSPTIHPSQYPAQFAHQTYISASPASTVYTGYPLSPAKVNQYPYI
SGK1 (human), O00141 [S422D], sequence (O00141 whole entry S422D, looked up): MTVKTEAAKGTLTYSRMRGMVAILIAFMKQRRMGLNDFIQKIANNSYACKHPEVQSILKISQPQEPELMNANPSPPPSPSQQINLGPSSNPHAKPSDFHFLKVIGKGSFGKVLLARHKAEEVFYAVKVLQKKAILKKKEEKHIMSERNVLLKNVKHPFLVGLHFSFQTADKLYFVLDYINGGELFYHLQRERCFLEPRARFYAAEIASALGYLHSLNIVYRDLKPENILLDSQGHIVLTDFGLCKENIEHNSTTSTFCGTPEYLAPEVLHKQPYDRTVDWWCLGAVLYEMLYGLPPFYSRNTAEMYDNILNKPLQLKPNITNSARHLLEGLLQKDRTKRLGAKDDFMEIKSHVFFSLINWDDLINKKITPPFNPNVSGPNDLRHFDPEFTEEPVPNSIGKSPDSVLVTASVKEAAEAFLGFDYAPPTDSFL
NUAK1 (human), sequence (O60285 whole entry, looked up): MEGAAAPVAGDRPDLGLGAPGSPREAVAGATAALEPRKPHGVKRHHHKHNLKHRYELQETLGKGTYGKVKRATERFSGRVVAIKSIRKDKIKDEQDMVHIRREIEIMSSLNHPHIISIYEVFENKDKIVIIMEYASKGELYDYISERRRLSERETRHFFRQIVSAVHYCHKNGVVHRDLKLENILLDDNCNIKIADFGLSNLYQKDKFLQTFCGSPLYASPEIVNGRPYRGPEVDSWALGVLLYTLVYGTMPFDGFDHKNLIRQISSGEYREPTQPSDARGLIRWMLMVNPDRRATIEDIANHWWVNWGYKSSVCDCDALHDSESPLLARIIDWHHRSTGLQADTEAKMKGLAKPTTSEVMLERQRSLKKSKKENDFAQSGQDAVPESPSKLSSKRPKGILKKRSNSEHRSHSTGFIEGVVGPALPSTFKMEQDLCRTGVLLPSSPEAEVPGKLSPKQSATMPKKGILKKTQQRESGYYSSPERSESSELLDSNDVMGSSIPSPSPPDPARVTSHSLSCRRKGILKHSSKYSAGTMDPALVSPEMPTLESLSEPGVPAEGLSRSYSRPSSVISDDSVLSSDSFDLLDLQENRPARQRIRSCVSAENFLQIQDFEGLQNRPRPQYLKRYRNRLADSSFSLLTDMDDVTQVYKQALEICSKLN
MAPK12 (human), sequence (P53778 whole entry, looked up): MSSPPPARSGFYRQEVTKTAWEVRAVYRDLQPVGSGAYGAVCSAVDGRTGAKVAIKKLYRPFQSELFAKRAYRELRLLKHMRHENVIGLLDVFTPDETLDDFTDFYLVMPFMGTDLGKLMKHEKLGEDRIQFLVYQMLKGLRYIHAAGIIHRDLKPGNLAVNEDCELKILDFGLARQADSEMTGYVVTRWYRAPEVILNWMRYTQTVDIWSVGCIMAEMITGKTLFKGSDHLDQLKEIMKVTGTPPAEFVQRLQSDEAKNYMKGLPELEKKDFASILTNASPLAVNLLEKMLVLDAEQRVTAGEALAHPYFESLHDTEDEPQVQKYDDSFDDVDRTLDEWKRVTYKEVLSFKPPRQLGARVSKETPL

**Q.** Which results are given for `CCn1c(-c2nonc2N)nc2cncc(CNC3CCNCC3)c21`?
**A.** residual activity (DYRK2 (human); compound 0.1 µM): 87%; residual activity (DYRK2 (human); compound 1.0 µM): 89%; residual activity (DYRK2 (human); compound 10.0 µM): 53%; residual activity (ERBB4 (human); compound 0.1 µM): 112%; residual activity (ERBB4 (human); compound 1.0 µM): 104%; residual activity (RPS6KA1 KD1 KD2 (human); compound 0.1 µM): 33%; residual activity (RPS6KA1 KD1 KD2 (human); compound 1.0 µM): 15%; residual activity (RPS6KA1 KD1 KD2 (human); compound 10.0 µM): 9%; residual activity (PRKAA1 or PRKAA2 (rat); compound 0.1 µM): 95%; residual activity (PRKAA1 or PRKAA2 (rat); compound 1.0 µM): 82%; residual activity (PRKAA1 or PRKAA2 (rat); compound 10.0 µM): 29%; residual activity (MAPK8 (human); compound 0.1 µM): 112%; residual activity (MAPK8 (human); compound 1.0 µM): 105%; residual activity (MAPK8 (human); compound 10.0 µM): 101%; residual activity (EPHB2 (human); compound 0.1 µM): 115%; residual activity (EPHB2 (human); compound 1.0 µM): 91%; residual activity (EPHB2 (human); compound 10.0 µM): 87%; residual activity ([1]; compound 0.1 µM): 48%; residual activity ([1]; compound 1.0 µM): 16%; residual activity ([1]; compound 10.0 µM): 4%; residual activity (CHEK2 (human); compound 0.1 µM): 94%; residual activity (CHEK2 (human); compound 1.0 µM): 89%; residual activity (CHEK2 (human); compound 10.0 µM): 69%; residual activity (PRKCA (human); compound 0.1 µM): 84%; residual activity (PRKCA (human); compound 1.0 µM): 70%; residual activity (PRKCA (human); compound 10.0 µM): 30%; residual activity (PLK1 (human); compound 0.1 µM): 83%; residual activity (PLK1 (human); compound 1.0 µM): 60%; residual activity (PLK1 (human); compound 10.0 µM): 41%; residual activity (MAPK13 (human); compound 0.1 µM): 100%; residual activity (MAPK13 (human); compound 1.0 µM): 99%; residual activity (MAPK13 (human); compound 10.0 µM): 88%; residual activity (AURKA (human); compound 0.1 µM): 91%; residual activity (AURKA (human); compound 1.0 µM): 95%; residual activity (AURKA (human); compound 10.0 µM): 103%; residual activity (SYK (human); compound 0.1 µM): 106%; residual activity (SYK (human); compound 1.0 µM): 101%; residual activity (SYK (human); compound 10.0 µM): 79%; residual activity (CaMK1 (human); compound 0.1 µM): 119%; residual activity (CaMK1 (human); compound 1.0 µM): 109%; residual activity (CaMK1 (human); compound 10.0 µM): 109%; residual activity (MAPK10 (human); compound 0.1 µM): 97%; residual activity (MAPK10 (human); compound 10.0 µM): 95%; residual activity (MAPK3 (human); compound 0.1 µM): 95%; residual activity (MAPK3 (human); compound 1.0 µM): 98%; residual activity (MAPK3 (human); compound 10.0 µM): 97%; residual activity (MAPK1 (human); compound 0.1 µM): 113%; residual activity (MAPK1 (human); compound 1.0 µM): 117%; residual activity (MAPK1 (human); compound 10.0 µM): 115%; residual activity (MAPKAPK3 (human); compound 0.1 µM): 98%; residual activity (MAPKAPK3 (human); compound 1.0 µM): 101%; residual activity (MAPKAPK3 (human); compound 10.0 µM): 97%; residual activity (PAK4 (human); compound 1.0 µM): 96%; residual activity (PAK4 (human); compound 10.0 µM): 79%; residual activity (DYRK1A (human); compound 0.1 µM): 92%; residual activity (DYRK1A (human); compound 1.0 µM): 73%; residual activity (DYRK1A (human); compound 10.0 µM): 35%; residual activity (PRKACA (human); compound 0.1 µM): 79%; residual activity (PRKACA (human); compound 1.0 µM): 33%; residual activity (PRKACA (human); compound 10.0 µM): 8%; residual activity (EPHB3 (human); compound 0.1 µM): 81%; residual activity (EPHB3 (human); compound 1.0 µM): 99%; residual activity (EPHB3 (human); compound 10.0 µM): 83%; residual activity (IKBKE (human); compound 0.1 µM): 111%; residual activity (IKBKE (human); compound 1.0 µM): 110%; residual activity (IKBKE (human); compound 10.0 µM): 115%; residual activity (MAPK12 (human); compound 0.1 µM): 119%; residual activity (MAPK12 (human); compound 1.0 µM): 112%; residual activity (MAPK12 (human); compound 10.0 µM): 109%; residual activity (HIPK2 (human); compound 0.1 µM): 112%; residual activity (HIPK2 (human); compound 1.0 µM): 82%; residual activity (HIPK2 (human); compound 10.0 µM): 43%; residual activity (MKNK1 (human); compound 0.1 µM): 91%; residual activity (MKNK1 (human); compound 1.0 µM): 100%; residual activity (MKNK1 (human); compound 10.0 µM): 90%; residual activity (MST4 (human); compound 0.1 µM): 91%; residual activity (MST4 (human); compound 1.0 µM): 81%; residual activity (MST4 (human); compound 10.0 µM): 91%; residual activity (BRSK2 (human); compound 0.1 µM): 96%; residual activity (BRSK2 (human); compound 1.0 µM): 89%; residual activity (BRSK2 (human); compound 10.0 µM): 41%; residual activity (NUAK1 (human); compound 0.1 µM): 101%; residual activity (NUAK1 (human); compound 1.0 µM): 91%; residual activity (NUAK1 (human); compound 10.0 µM): 59%; residual activity (MARK2 (human); compound 0.1 µM): 99%; residual activity (MARK2 (human); compound 1.0 µM): 92%; residual activity (MARK2 (human); compound 10.0 µM): 63%; residual activity (PAK7 (human); compound 0.1 µM): 93%; residual activity (PAK7 (human); compound 1.0 µM): 100%; residual activity (PAK7 (human); compound 10.0 µM): 98%; residual activity ([2]; compound 0.1 µM): 82%; residual activity ([2]; compound 1.0 µM): 55%; residual activity ([2]; compound 10.0 µM): 25%; residual activity (MAP3K11 (human); compound 1.0 µM): 111%; residual activity (MAP3K11 (human); compound 10.0 µM): 89%; residual activity (MAP2K6 (human); compound 0.1 µM): 89%; residual activity (MAP2K6 (human); compound 1.0 µM): 90%; residual activity (MAP2K6 (human); compound 10.0 µM): 96%; residual activity (NEK2 (human); compound 0.1 µM): 98%; residual activity (NEK2 (human); compound 1.0 µM): 93%; residual activity (NEK2 (human); compound 10.0 µM): 106%
